Data reported in paper PMC9653173, “Trotabresib (CC-90010) in combination with adjuvant temozolomide or concomitant temozolomide plus radiotherapy in patients with newly diagnosed glioblastoma” (Neuro-Oncology Advances, 2022).
“And” between values parts separate entries of the source, which are not always exact repeats. Equal entries are not always repeated. Where two headings read alike, the source gives them in different places.

Assays:
HEXIM1 mRNA = assay: Blood HEXIM1 mRNA pharmacodynamics; type: in vivo, human
[1] = system: patients with newly diagnosed glioblastoma; settings: for TEAEs leading to discontinuation of the labelled study drug(s), patients: February 20, 2022 cutoff; for ALT increased TRAE, any grade / ALT increased TRAE, grade 3/4 / AST increased TRAE, any grade / AST increased TRAE, grade 3/4 / Acneiform dermatitis TRAE, any grade / Acneiform dermatitis TRAE, grade 3/4 / Anemia TRAE, any grade / Anemia TRAE, grade 3/4 / Any TRAE, any grade / Any TRAE, grade 3/4 / Asthenia TRAE, any grade / Asthenia TRAE, grade 3/4 / Blood bilirubin increased TRAE, any grade / Blood bilirubin increased TRAE, grade 3/4 / Decreased appetite TRAE, any grade / Decreased appetite TRAE, grade 3/4 / Diarrhea TRAE, any grade / Diarrhea TRAE, grade 3/4 / Dysgeusia TRAE, any grade / Dysgeusia TRAE, grade 3/4 / Dyspepsia TRAE, any grade / Dyspepsia TRAE, grade 3/4 / Fatigue TRAE, any grade / Fatigue TRAE, grade 3/4 / Hyperbilirubinemia TRAE, any grade / Hyperbilirubinemia TRAE, grade 3/4 / Hyperglycemia TRAE, any grade / Hyperglycemia TRAE, grade 3/4 / Hypophosphatemia TRAE, any grade / Hypophosphatemia TRAE, grade 3/4 / Hypotension TRAE, any grade / Hypotension TRAE, grade 3/4 / Insomnia TRAE, any grade / Insomnia TRAE, grade 3/4 / Intracranial hemorrhage TRAE, any grade / Intracranial hemorrhage TRAE, grade 3/4 / Leukopenia TRAE, any grade / Leukopenia TRAE, grade 3/4 / Lymphopenia TRAE, any grade / Lymphopenia TRAE, grade 3/4 / Nausea TRAE, any grade / Nausea TRAE, grade 3/4 / Neutropenia TRAE, any grade / Neutropenia TRAE, grade 3/4 / Pruritus TRAE, any grade / Pruritus TRAE, grade 3/4 / Rash TRAE, any grade / Rash TRAE, grade 3/4 / Seizure TRAE, any grade / Seizure TRAE, grade 3/4 / Thrombocytopenia TRAE, any grade / Thrombocytopenia TRAE, grade 3/4 / Vomiting TRAE, any grade / Vomiting TRAE, grade 3/4: related to labelled drug(s)
From the text: The phase Ib, dose-escalation part of this study explored escalating oral doses of trotabresib in combination with TMZ in the adjuvant setting and with TMZ plus RT in the concomitant setting. […] Dose-escalation decisions were made by the safety review committee, based on all available safety, pharmacokinetics, pharmacodynamics, and preliminary efficacy information, and a calculation of risk assessment using a Bayesian logistic regression model.
The primary endpoints of the study were to determine the safety and tolerability, maximum tolerated dose, and/or recommended phase II dose (RP2D) of trotabresib in combination with TMZ as adjuvant therapy, and with TMZ and RT as concomitant therapy. […] Trotabresib pharmacodynamics was an exploratory endpoint.
Adverse events (AEs) were classified using the Medical Dictionary for Regulatory Activities v18.1 or higher system organ class and preferred term. Severity of AEs was graded based on the patient’s symptoms according to the National Cancer Institute Common Terminology Criteria for Adverse Events v5.0.[35] Dose-limiting toxicities (DLTs) were defined as any of the toxicities described in Supplementary Table S2 occurring within the DLT assessment period (cycle 1 [28 days]), unless the event could clearly be determined to be unrelated to trotabresib. Screening MRI scans were performed after surgical resection and within 28 days (+3 days) prior to initiation of study treatment. Subsequent tumor assessments by MRI or CT were performed at week 10 during the concomitant treatment period and at the end of every other treatment cycle from cycle 2 onwards during the adjuvant and trotabresib monotherapy treatment periods. Best overall response (BOR) was evaluated as complete response (CR), partial response (PR), SD, progressive disease (PD), or not evaluable, according to Response Assessment in Neuro-Oncology criteria for high-grade glioma.[36] Plasma samples were collected during the first treatment cycle for investigation of trotabresib pharmacokinetics and pharmacodynamics. Plasma pharmacokinetic parameters assessed included peak plasma concentration (Cmax), time to peak plasma concentration (tmax), area under the plasma concentration–time curve (AUC), and terminal half-life (t½). Pharmacodynamic markers assessed included blood levels of CCR1 and HEXIM1 mRNA, which are established markers of BET inhibitor target engagement.[17],[22],[37],[38]

## Cn1cc(-c2cc(S(C)(=O)=O)ccc2OCC2CC2)c2ccccc2c1=O [Trotabresib]
HEXIM1 mRNA; RP2D 30 mg, cycle 1
  Duration of HEXIM1 mRNA elevation: remained above baseline until 168 h post-dose
HEXIM1 mRNA; RP2D 30 mg, days 3 and 4, adjuvant and concomitant cohorts
  Increase in blood HEXIM1 mRNA expression: 2.5- to 4.0 fold
HEXIM1 mRNA; both cohorts
  HEXIM1 modulation vs dose: increased with trotabresib dose
[1]; adjuvant 30 mg (n = 6)
  TRAEs leading to discontinuation of TMZ, related to labelled drug(s): 1 (17) 1 (17) 1 (17) n (%)
  TRAEs leading to discontinuation of any study drug, related to labelled drug(s): 1 (17) 1 (17) 1 (17) n (%)
  TRAEs leading to discontinuation of trotabresib, related to labelled drug(s): 1 (17) 1 (17) 1 (17) n (%)
  TEAEs leading to discontinuation of the labelled study drug(s), patients: 1 (17) 1 (17) 1 (17) n (%)
[1]; adjuvant 45 mg (n = 7)
  TEAEs leading to discontinuation of the labelled study drug(s), patients: 1 (14) 1 (14) 1 (14) n (%)
[1]; adjuvant (+ TMZ) and concomitant (+ TMZ + RT) settings, 4 days on/24 days off
  Recommended phase II dose (RP2D): 30 mg
[1]; adjuvant overall
  Rash and other skin-related TRAEs attributed to trotabresib only: 7 (39%) n (%)
[1]; adjuvant overall (N = 18)
  TRAEs leading to discontinuation of TMZ, related to labelled drug(s): 1 (6) 1 (6) 1 (6) n (%)
  TRAEs leading to discontinuation of any study drug, related to labelled drug(s): 1 (6) 1 (6) 1 (6) n (%)
  TRAEs leading to discontinuation of trotabresib, related to labelled drug(s): 1 (6) 1 (6) 1 (6) n (%)
  TEAEs leading to discontinuation of the labelled study drug(s), patients: 2 (11) 2 (11) 2 (11) n (%)
  ALT increased TRAE, any grade: 1 (6) n (%)
  ALT increased TRAE, grade 3/4: 0 n (%)
  AST increased TRAE, any grade: 1 (6) n (%)
  AST increased TRAE, grade 3/4: 0 n (%)
  Acneiform dermatitis TRAE, any grade: 3 (17) n (%)
  Acneiform dermatitis TRAE, grade 3/4: 0 n (%)
  Anemia TRAE, any grade: 4 (22) n (%)
  Anemia TRAE, grade 3/4: 0 n (%)
  Any TRAE, any grade: 16 (89) n (%)
  Any TRAE, grade 3/4: 9 (50) n (%)
  Asthenia TRAE, any grade: 7 (39) n (%)
  Asthenia TRAE, grade 3/4: 1 (6) n (%)
  Blood bilirubin increased TRAE, any grade: 0 n (%)
  Blood bilirubin increased TRAE, grade 3/4: 0 n (%)
  Decreased appetite TRAE, any grade: 6 (33) n (%)
  Decreased appetite TRAE, grade 3/4: 0 n (%)
  Diarrhea TRAE, any grade: 11 (61) n (%)
  Diarrhea TRAE, grade 3/4: 1 (6) n (%)
  Dysgeusia TRAE, any grade: 6 (33) n (%)
  Dysgeusia TRAE, grade 3/4: 0 n (%)
  Dyspepsia TRAE, any grade: 2 (11) n (%)
  Dyspepsia TRAE, grade 3/4: 0 n (%)
  Fatigue TRAE, any grade: 2 (11) n (%)
  Fatigue TRAE, grade 3/4: 0 n (%)
  Hyperbilirubinemia TRAE, any grade: 6 (33) n (%)
  Hyperbilirubinemia TRAE, grade 3/4: 1 (6) n (%)
  Hyperglycemia TRAE, any grade: 4 (22) n (%)
  Hyperglycemia TRAE, grade 3/4: 1 (6) n (%)
  Hypophosphatemia TRAE, any grade: 2 (11) n (%)
  Hypophosphatemia TRAE, grade 3/4: 0 n (%)
  Hypotension TRAE, any grade: 2 (11) n (%)
  Hypotension TRAE, grade 3/4: 0 n (%)
  Insomnia TRAE, any grade: 2 (11) n (%)
  Insomnia TRAE, grade 3/4: 0 n (%)
  Intracranial hemorrhage TRAE, any grade: 1 (6) n (%)
  Intracranial hemorrhage TRAE, grade 3/4: 1 (6) n (%)
  Leukopenia TRAE, any grade: 1 (6) n (%)
  Leukopenia TRAE, grade 3/4: 0 n (%)
  Lymphopenia TRAE, any grade: 2 (11) n (%)
  Lymphopenia TRAE, grade 3/4: 1 (6) n (%)
  Nausea TRAE, any grade: 9 (50) n (%)
  Nausea TRAE, grade 3/4: 0 n (%)
  Neutropenia TRAE, any grade: 5 (28) n (%)
  Neutropenia TRAE, grade 3/4: 3 (17) n (%)
  Pruritus TRAE, any grade: 3 (17) n (%)
  Pruritus TRAE, grade 3/4: 0 n (%)
  Rash TRAE, any grade: 5 (28) n (%)
  Rash TRAE, grade 3/4: 0 n (%)
  Seizure TRAE, any grade: 0 n (%)
  Seizure TRAE, grade 3/4: 0 n (%)
  Thrombocytopenia TRAE, any grade: 10 (56%) n (%) and 10 (56) n (%)
  Thrombocytopenia TRAE, grade 3/4: 7 (39%) n (%) and 7 (39) n (%)
  Vomiting TRAE, any grade: 4 (22) n (%)
  Vomiting TRAE, grade 3/4: 0 n (%)
[1]; adjuvant, trotabresib 30 mg
  Serious intracranial hemorrhage, attributed to trotabresib: 1 patient
[1]; adjuvant, trotabresib 45 mg
  Serious diarrhea, attributed to trotabresib: 1 patient
[1]; both cohorts
  Treatment-related deaths: no treatment-related deaths
[1]; concomitant overall
  Rash and other skin-related TRAEs attributed to trotabresib only: 4 (29%) n (%)
[1]; concomitant overall (N = 14)
  ALT increased TRAE, any grade: 1 (7) n (%)
  ALT increased TRAE, grade 3/4: 1 (7) n (%)
  AST increased TRAE, any grade: 1 (7) n (%)
  AST increased TRAE, grade 3/4: 0 n (%)
  Acneiform dermatitis TRAE, any grade: 3 (21) n (%)
  Acneiform dermatitis TRAE, grade 3/4: 0 n (%)
  Anemia TRAE, any grade: 3 (21) n (%)
  Anemia TRAE, grade 3/4: 2 (14) n (%)
  Any TRAE, any grade: 14 (100) n (%)
  Any TRAE, grade 3/4: 7 (50) n (%)
  Asthenia TRAE, any grade: 3 (21) n (%)
  Asthenia TRAE, grade 3/4: 0 n (%)
  Blood bilirubin increased TRAE, any grade: 2 (14) n (%)
  Blood bilirubin increased TRAE, grade 3/4: 0 n (%)
  Decreased appetite TRAE, any grade: 3 (21) n (%)
  Decreased appetite TRAE, grade 3/4: 0 n (%)
  Diarrhea TRAE, any grade: 2 (14) n (%)
  Diarrhea TRAE, grade 3/4: 1 (7) n (%)
  Dysgeusia TRAE, any grade: 5 (36) n (%)
  Dysgeusia TRAE, grade 3/4: 0 n (%)
  Dyspepsia TRAE, any grade: 2 (14) n (%)
  Dyspepsia TRAE, grade 3/4: 0 n (%)
  Fatigue TRAE, any grade: 5 (36) n (%)
  Fatigue TRAE, grade 3/4: 1 (7) n (%)
  Hyperbilirubinemia TRAE, any grade: 2 (14) n (%)
  Hyperbilirubinemia TRAE, grade 3/4: 0 n (%)
  Hyperglycemia TRAE, any grade: 1 (7) n (%)
  Hyperglycemia TRAE, grade 3/4: 0 n (%)
  Hypophosphatemia TRAE, any grade: 1 (7) n (%)
  Hypophosphatemia TRAE, grade 3/4: 0 n (%)
  Hypotension TRAE, any grade: 0 n (%)
  Hypotension TRAE, grade 3/4: 0 n (%)
  Insomnia TRAE, any grade: 0 n (%)
  Insomnia TRAE, grade 3/4: 0 n (%)
  Intracranial hemorrhage TRAE, any grade: 0 n (%)
  Intracranial hemorrhage TRAE, grade 3/4: 0 n (%)
  Leukopenia TRAE, any grade: 0 n (%)
  Leukopenia TRAE, grade 3/4: 0 n (%)
  Lymphopenia TRAE, any grade: 2 (14) n (%)
  Lymphopenia TRAE, grade 3/4: 0 n (%)
  Nausea TRAE, any grade: 8 (57%) n (%) and 8 (57) n (%)
  Nausea TRAE, grade 3/4: 0 n (%)
  Neutropenia TRAE, any grade: 6 (43) n (%)
  Neutropenia TRAE, grade 3/4: 4 (29) n (%)
  Pruritus TRAE, any grade: 0 n (%)
  Pruritus TRAE, grade 3/4: 0 n (%)
  Rash TRAE, any grade: 1 (7) n (%)
  Rash TRAE, grade 3/4: 0 n (%)
  Seizure TRAE, any grade: 2 (14) n (%)
  Seizure TRAE, grade 3/4: 0 n (%)
  Thrombocytopenia TRAE, any grade: 9 (64%) n (%) and 9 (64) n (%)
  Thrombocytopenia TRAE, grade 3/4: 6 (43%) n (%) and 6 (43) n (%)
  Vomiting TRAE, any grade: 5 (36) n (%)
  Vomiting TRAE, grade 3/4: 0 n (%)
[1]; trotabresib 30 mg 4 days on/24 days off
  Platelet nadir: > 100,000 /mm^3
